The values below come from ChEMBL document CHEMBL4715890, “Flavonoids from Sophora alopecuroides L. improve palmitate-induced insulin resistance by inhibiting PTP1B activity in vitro” (Bioorg Med Chem Lett, 2021).

The term IC50 denotes the concentration that inhibits the measured activity by half. What is called IC10 is the concentration needed for an effect of 10%. As a reminder, the inhibition is the percentage by which the read-out fell short of the control. A higher inhibition goes with strong suppression.

Data set [1] concerns C2C12. Briefly: Cytotoxicity against mouse C2C12 cells assessed as reduction in cell viability by MTT assay. The class given is cell-based. The note with it: for IC50: Mus musculus, C2C12; for IC10: mouse, c2c12. Background: Tetrazolium dyes change colour on reduction, which living cells bring about.
The target of data set [2] is T1, Tyrosine-protein phosphatase non-receptor type 1 (Homo sapiens) (UniProt P18031).
T1 sequence (whole entry): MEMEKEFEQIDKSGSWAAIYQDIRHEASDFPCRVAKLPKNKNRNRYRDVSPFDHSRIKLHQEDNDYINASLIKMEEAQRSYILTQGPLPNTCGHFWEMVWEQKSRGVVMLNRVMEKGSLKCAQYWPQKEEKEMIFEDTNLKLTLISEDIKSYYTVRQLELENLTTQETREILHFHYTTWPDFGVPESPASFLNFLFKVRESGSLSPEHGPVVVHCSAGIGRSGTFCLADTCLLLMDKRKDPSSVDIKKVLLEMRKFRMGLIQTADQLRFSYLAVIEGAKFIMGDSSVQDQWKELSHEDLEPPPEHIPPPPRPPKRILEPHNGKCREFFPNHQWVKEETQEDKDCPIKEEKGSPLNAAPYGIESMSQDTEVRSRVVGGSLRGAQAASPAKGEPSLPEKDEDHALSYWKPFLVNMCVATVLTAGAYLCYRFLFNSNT
Briefly: Inhibition of PTP1B (unknown origin) at 0.1 ug/ml relative to control. The note with it: dose 0.1 µg/ml.

Data set [3] has as its system C2C12. Briefly: Induction of glucose uptake in mouse C2C12 cells at 1 ug/ml. Type of data set: functional, cell-based.
The subject of data set [4] is C2C12. Briefly: Induction of glucose uptake in mouse C2C12 cells at 1 ug/ml in presence of insulin. The class given is functional, cell-based. The note with it: dose 1.0 µg/ml.
Data set [5] deals with T2, Tyrosine-protein phosphatase non-receptor type 1 (Mus musculus) (UniProt P35821).
T2 sequence (whole entry): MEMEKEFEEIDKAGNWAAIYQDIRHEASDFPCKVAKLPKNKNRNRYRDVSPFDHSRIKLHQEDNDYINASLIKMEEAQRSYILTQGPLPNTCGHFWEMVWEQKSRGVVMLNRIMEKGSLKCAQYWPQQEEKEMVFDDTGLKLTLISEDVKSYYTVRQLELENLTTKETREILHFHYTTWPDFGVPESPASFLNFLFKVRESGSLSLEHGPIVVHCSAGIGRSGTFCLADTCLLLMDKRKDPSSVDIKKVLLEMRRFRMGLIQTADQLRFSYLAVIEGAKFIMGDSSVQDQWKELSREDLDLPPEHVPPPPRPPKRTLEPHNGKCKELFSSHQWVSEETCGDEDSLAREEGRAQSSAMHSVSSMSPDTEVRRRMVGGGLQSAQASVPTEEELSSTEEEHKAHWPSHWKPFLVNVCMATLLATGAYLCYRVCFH
Briefly: Inhibition of PTP1B in mouse PA-induced insulin-resistance C2C12 cells assessed as increase in glucose consumption at 1 ug/ml in presence of insulin after 16 hrs. The class given is cell-based. The note with it: dose 1.0 µg/ml.

Molecules are shown by their SMILES. In brackets after ≈: the same amount, converted by molar mass. Activity calls are given as the source filed them. No cut-off for these calls is given here.

Consider `O=C(/C=C/c1ccc(O)c(O)c1)c1ccc(O)cc1O` [BUTEIN], for which, in data set [1], the IC50 was determined as 19 µg/mL (≈ 69.8 µM) and the IC10 was determined as 3.99 µg/mL (≈ 14.7 µM).

Take `O=c1c(-c2ccc3c(c2)OCO3)coc2cc(O[C@@H]3O[C@H](CO)[C@@H](O)[C@H](O)[C@H]3O)ccc12`: in data set [1], the 50% inhibitory concentration (IC50) amounted to 13.5 µg/mL (≈ 30.3 µM) and the IC10 worked out at 4.18 µg/mL (≈ 9.41 µM).

`O=c1c(-c2ccc(O)cc2)coc2cc(O[C@@H]3O[C@H](CO[C@@H]4OC[C@@H](O)[C@H](O)[C@H]4O)[C@@H](O)[C@H](O)[C@H]3O)cc(O)c12`: in data set [2], the inhibition was found to be 88.8%. For the same compound, the outcome in data set [3] was Active. Besides, in data set [1], the IC50 is 34.2 µg/mL (≈ 60.5 µM) and the 10% effect concentration (IC10) stood at 6.07 µg/mL (≈ 10.8 µM). Further, the outcome in data set [4] was Active. Besides, in data set [5], the Glucose consumption increase entry is “Active”.

`O=C(/C=C/c1ccc(O)c(O)c1)OC[C@H]1O[C@@H](Oc2ccc3c(=O)c(-c4ccc(O)cc4)coc3c2)[C@H](O)[C@@H](O)[C@@H]1O` returned an inhibition in data set [2] of 81.6%. Besides, the result in data set [3] was Active. For the same compound, in data set [1], the 50% inhibitory concentration (IC50) is 31.2 µg/mL (≈ 54 µM) and the IC10 stood at 8.81 µg/mL (≈ 15.2 µM). The outcome in data set [4] was Active. Moreover, the Glucose consumption increase result in data set [5] is “Active”.

`O=c1cc(-c2ccc(O)c(O)c2)oc2cc(O[C@@H]3O[C@H](CO)[C@@H](O)[C@H](O)[C@H]3O)ccc12`: the inhibition in data set [2] was 68.9%. Besides, in data set [3], the result was Active. Further, in data set [1], the IC50 turned out to be 40 µg/mL (≈ 92.6 µM) and the IC10 was 10.07 µg/mL (≈ 23.3 µM). The outcome in data set [4] was Active. For the same compound, the Glucose consumption increase entry in data set [5] was “Active”.

In turn, `O=c1cc(-c2ccc(O[C@@H]3O[C@H](CO)[C@@H](O)[C@H](O)[C@H]3O)c(O)c2)oc2cc(O)ccc12` showed an inhibition in data set [2] of 68.9%. For the same compound, the result in data set [3] and in data set [4] was Active. Further, the IC50 in data set [1] turned out to be 29 µg/mL (≈ 67.1 µM). For the same compound, the IC10 in data set [1] worked out at 5.85 µg/mL (≈ 13.5 µM). For the same compound, the Glucose consumption increase entry in data set [5] was “Active”.

As to `O=C(/C=C/c1ccc(O)cc1)c1ccc(O)cc1O` [ISOLIQUIRITIGENIN], the outcome in data set [3] was Active. Besides, in data set [1], the IC50 was determined as 26.3 µg/mL (≈ 103 µM) and the IC10 was 7.43 µg/mL (≈ 29 µM). Besides, the outcome in data set [4] was Active.

On to `COc1ccc(-c2cc(=O)c3c(O)cc(O[C@@H]4O[C@H](CO[C@@H]5O[C@@H](C)[C@H](O)[C@@H](O)[C@H]5O)[C@@H](O)[C@H](O)[C@H]4O)cc3o2)cc1O` [DIOSMIN], for which, in data set [1], the IC50 stood at 20 µg/mL (≈ 32.8 µM) and the IC10 is 5.14 µg/mL (≈ 8.45 µM).

Take `O=C(/C=C/c1ccccc1)c1ccc(O)cc1O` [2',4'-DIHYDROXYCHALCONE]: the result in data set [3] was Active. In addition, in data set [1], the IC50 was found to be 32.3 µg/mL (≈ 134 µM) and the IC10 amounted to 6.14 µg/mL (≈ 25.6 µM). Besides, in data set [4], the result was Active.

For the compound `O=c1cc(-c2ccc(O)cc2)oc2cc(O)cc(O)c12` [APIGENIN], the outcome in data set [3] was Active. For the same compound, in data set [1], the IC50 was 26.6 µg/mL (≈ 98.4 µM) and the IC10 turned out to be 4.96 µg/mL (≈ 18.4 µM). Besides, the outcome in data set [4] was Active.

As for `O=c1c(-c2ccc3c(c2)OCO3)coc2cc(O)ccc12` [PSEUDOBAPTOGENIN], the outcome in data set [3] was Active. Moreover, in data set [1], the IC50 was 12.1 µg/mL (≈ 42.8 µM) and the IC10 came to 3.49 µg/mL (≈ 12.4 µM). In addition, the result in data set [4] was Active. Besides, in data set [5], the Glucose consumption increase result was “Active”.

For the compound `O=c1c(O)c(-c2ccc(O)c(O)c2)oc2cc(O)cc(O)c12` [QUERCETIN], in data set [1], the IC50 was found to be 30.8 µg/mL (≈ 102 µM) and the 10% effect concentration (IC10) was 9.23 µg/mL (≈ 30.5 µM).

On to `COc1cc(O)c2c(=O)c(-c3ccc(O)c(OC)c3)coc2c1`, for which the inhibition in data set [2] came out at 70.1%. In addition, the result in data set [3] was Active. In addition, in data set [1], the IC50 was found to be 32.5 µg/mL (≈ 103 µM) and the 10% effect concentration (IC10) is 6.93 µg/mL (≈ 22 µM). In addition, in data set [4], the outcome was Active. In addition, the Glucose consumption increase entry in data set [5] was “Active”.

In the case of `O=C(/C=C/c1ccc(O)c(O)c1)c1ccc(O[C@@H]2O[C@H](CO)[C@@H](O)[C@H](O)[C@H]2O)cc1O`, in data set [1], the IC50 came to 20.8 µg/mL (≈ 47.9 µM) and the IC10 is 4.39 µg/mL (≈ 10.1 µM).

`COc1cc(/C=C/C(=O)OC[C@H]2O[C@@H](Oc3ccc4c(=O)c(-c5ccc(O)c(O)c5)coc4c3)[C@H](O)[C@@H](O)[C@@H]2O)ccc1O` gave an inhibition in data set [2] of 95.2%. For the same compound, the result in data set [3] and in data set [4] was Active. For the same compound, the IC50 in data set [1] was 24.3 µg/mL (≈ 40 µM). Also, the concentration for an effect of 10% (IC10) in data set [1] was found to be 7.36 µg/mL (≈ 12.1 µM). In data set [5], the Glucose consumption increase entry was “Active”.

Take `COc1cc(O)c2c(=O)c(-c3ccc(O)cc3)coc2c1` [PRUNETIN]: in data set [3], the result was Active. In addition, in data set [1], the IC50 worked out at 23.2 µg/mL (≈ 81.8 µM) and the IC10 came to 7.19 µg/mL (≈ 25.3 µM). For the same compound, the result in data set [4] was Active. The Glucose consumption increase entry in data set [5] was “Active”.
